Data from PMC7413516, “Antidepressant-like activity and safety profile evaluation of 1H-imidazo[2,1-f]purine-2,4(3H,8H)-dione derivatives as 5-HT1A receptor partial agonists” (PLoS ONE, 2020).
Where “and” joins values, the source holds several entries; their conditions need not be identical. Equal values may be shown once. Read-outs that look alike come from different tables or passages of the source.

Assay: Pharmacokinetic study in mice, plasma and brain structures, LC/MS/MS
Type: in vivo, Swiss albino mice
Settings: 1.25 mg/kg i.p.; for Kp: ratio of AUC values
Description: Blood samples from the Swiss albino mice were collected at 0 (pre-dose), 5, 15, 30, 60, 120, 240 and 480 min after a compound administration. The blood samples and brain structures were collected under general anesthesia induced by i.p. injection of 50 mg/kg ketamine plus 8 mg/kg xylazine. The blood samples were taken into heparinized tubes, immediately centrifuged at 1000 × g for 10 min, and plasma was collected. The plasma samples and brain structures were immediately frozen at -30°C and -80°C, respectively.
The plasma and tissue sample pretreatment procedure involved acetonitrile precipitation. A 5 μL aliquot of the IS working solution (100 ng/mL) was added to 50 μL of the collected mouse plasma sample, which was then vortex-mixed for 10 seconds. Thereafter, 200 μL of acetonitrile was added, vortexed during 20 min, and then centrifuged (1000 × g, 10 min). The supernatant (100 μL) was then transferred to insert placed in an autosampler vial, and a 10 μL volume of this was injected onto the HPLC column. Tissue samples were thawed before use, and whole hippocampus, striatum and frontal cortex were weighted and placed in a glass mortar and pestle tissue grinder and homogenized with an appropriate amount of phosphate buffer (pH 7.4) in 1:5 ratio. Afterward, 50 μL of tissue homogenates were transferred to new Eppendorf tubes and spiked with 5 μL of the internal standard working solution. All samples were stored on ice during the preparation process. This was followed by procedures like those described above.
The LC/ESI-MS/MS experiments were performed on an Applied Biosystems/MDS Sciex (Concord, Ontario, Canada) API 2000 triple quadrupole mass spectrometer equipped with an electrospray (ESI) ionization interface. This instrument was coupled to an Agilent 1100 (Agilent Technologies, Waldbronn, Germany) LC system. Data acquisition and processing were accomplished using Sciex Analyst 1.4.2 data collection and integration software.
An XBridge C18 (2.1 x 30 mm, 3.5 μm) analytical column (Waters, Milford, Massachusetts, USA) was used for compound separation. The temperatures of the column thermostat and the autosampler were set at 25°C and 10°C, respectively. The mobile phase consisted of a mixture of acetonitrile with addition of 0.1% formic acid (solvent A) and water with addition of 0.1% formic acid (solvent B) and was set at a flow rate of 0.6 mL/min. Starting amount of solvent A is 10%, isocratic elution from 0 to 3 min, and then gradient up to 90% of solvent A, and maintained to 10 min, and then gradient down to 10% of solvent A, and maintained to 15 min.
The ion source parameters were as follows: ion spray voltage: 5500 V; nebulizer gas (gas 1): 20 psi; turbo gas (gas 2): 25 psi; temperature of the heated nebulizer: 400°C; curtain gas: 40 psi; collision gas: 6 psi. Mass spectra were acquired by SRM with precursor/predominant product ion transitions for each analyte. The mass spectral Q1→Q3 transitions monitored for AZ-853, AZ-861 and for IS (nebivolol), were m/z 453.9→235.1; 504.3→285.1 and 406.2→151.1, respectively. The peak widths of precursor and product ions were set to 0.7 full width half-height. Quantification was done via peak area ratio.
Pharmacokinetic parameters were calculated by a non-compartmental approach from the average concentration values, using Phoenix WinNonlin software (Certara, Princeton, NJ 08540 USA). First order elimination rate constant (λz) was calculated by linear regression of time versus log concentration. Next, the area under the mean serum and tissue concentration versus time curve (AUC0→t) was estimated using the log-linear trapezoidal rule (1), where Ci is the plasma concentration measured at t1.
AUC0→t=∑i=1n((Ci+Ci+1)/2)∙(ti+1−ti). (1)
Area under the first-moment curve (AUMC0→t) was estimated by calculation of the total area under the first-moment curve using the Eq (2), where Ci is the plasma concentration measured at t1. AUMC0→t=∑i=1n((ti∙Ci+ti+1∙Ci+1)/2)∙(ti+1−ti). […]

With Cn1c(=O)c2c(nc3n(CCCCN4CCN(c5cccc(C(F)(F)F)c5)CC4)ccn23)n(C)c1=O [AZ-861, 1,3-dimethyl-8-(4-(4-(3-(trifluoromethyl)phenyl)piperazin-1-yl)butyl)-1H-imidazo[2,1-f]purine-2,4(3H,8H)-dione] the t0.5 was “ca. 1.5 h”, the “t0.5, frontal cortex” value was 91.6 min and the “t0.5, hippocampus” value was 110.4 min. The “t0.5, striatum” value was 83 min, the “t0.5, plasma” value (1.25 mg/kg) was 97 min and 97.5 min and the “Concentration, plasma (individual animals)” value (shortened to “Concentration, plasma”) (5 min, 1.25 mg/kg) was 45.82 ng/mL. For the same molecule, the “Concentration, frontal cortex (individual animals)” value (shortened to “Concentration, frontal cortex”) (15 min, 1.25 mg/kg) was 230.57 ng/mL and 280.45 ng/mL and 263.78 ng/mL and 270.14 ng/mL and 226.47 ng/mL, the “Concentration, hippocampus (individual animals)” value (“Concentration, hippocampus” for short) (15 min, 1.25 mg/kg) was 234.13 ng/mL and 378.52 ng/mL and 328.15 ng/mL and 322.19 ng/mL and 317.44 ng/mL and the “Concentration, plasma” value (15 min, 1.25 mg/kg) was 44.70 ng/mL and 36.90 ng/mL and 42.80 ng/mL and 28.74 ng/mL and 38.15 ng/mL. The “Concentration, striatum (individual animals)” value (“Concentration, striatum” for short) (15 min, 1.25 mg/kg) was 389.35 ng/mL and 271.77 ng/mL and 374.54 ng/mL and 325.44 ng/mL and 267.13 ng/mL, the “Concentration, frontal cortex” value (30 min, 1.25 mg/kg) was 184.45 ng/mL and 218.78 ng/mL and 190.14 ng/mL and 183.24 ng/mL and 219.17 ng/mL and the “Concentration, hippocampus” value (30 min, 1.25 mg/kg) was 192.35 ng/mL and 319.65 ng/mL and 217.19 ng/mL and 301.16 ng/mL and 245.19 ng/mL. The “Concentration, plasma” value (30 min, 1.25 mg/kg) was 31.10 ng/mL and 30.60 ng/mL and 22.40 ng/mL and 15.17 ng/mL and 19.56 ng/mL and 30.17 ng/mL, the “Concentration, striatum” value (30 min, 1.25 mg/kg) was 310.53 ng/mL and 258.57 ng/mL and 322.23 ng/mL and 318.66 ng/mL and 277.19 ng/mL and the “Concentration, frontal cortex” value (60 min, 1.25 mg/kg) was 97.18 ng/mL and 109.15 ng/mL and 91.75 ng/mL and 83.56 ng/mL and 89.47 ng/mL. The “Concentration, hippocampus” value (60 min, 1.25 mg/kg) was 110.60 ng/mL and 98.83 ng/mL and 88.50 ng/mL and 94.16 ng/mL and 88.17 ng/mL, the “Concentration, plasma” value (60 min, 1.25 mg/kg) was 6.60 ng/mL and 4.60 ng/mL and 6.58 ng/mL and 5.72 ng/mL and 4.19 ng/mL and the “Concentration, striatum” value (60 min, 1.25 mg/kg) was 69.53 ng/mL and 62.19 ng/mL and 51.27 ng/mL and 55.66 ng/mL and 48.45 ng/mL. For the same molecule, the “Concentration, frontal cortex” value (120 min, 1.25 mg/kg) was 41.78 ng/mL and 43.56 ng/mL and 39.11 ng/mL and 40.15 ng/mL and 41.18 ng/mL, the “Concentration, hippocampus” value (120 min, 1.25 mg/kg) was 51.18 ng/mL and 56.82 ng/mL and 60.95 ng/mL and 47.42 ng/mL and 49.13 ng/mL and the “Concentration, plasma” value (120 min, 1.25 mg/kg) was 2.36 ng/mL and 2.87 ng/mL and 3.33 ng/mL and 3.12 ng/mL and 1.97 ng/mL. The “Concentration, striatum” value (120 min, 1.25 mg/kg) was 30.75 ng/mL and 29.92 ng/mL and 21.66 ng/mL and 19.44 ng/mL and 23.17 ng/mL, the “Concentration, frontal cortex” value (240 min, 1.25 mg/kg) was 18.75 ng/mL and 10.56 ng/mL and 16.25 ng/mL and 9.48 ng/mL and the “Concentration, hippocampus” value (240 min, 1.25 mg/kg) was 15.35 ng/mL and 24.14 ng/mL and 23.55 ng/mL and 16.56 ng/mL. The “Concentration, plasma” value (240 min, 1.25 mg/kg) was 0.67 ng/mL and 0.70 ng/mL and 0.34 ng/mL and 0.41 ng/mL and 0.57 ng/mL and 0.66 ng/mL, the “Concentration, striatum” value (240 min, 1.25 mg/kg) was 4.87 ng/mL and 5.95 ng/mL and 6.85 ng/mL and 4.94 ng/mL and the Vd/F (plasma, 1.25 mg/kg) was 83 L/kg and 83.4 L/kg. The Kp (Swiss albino, mouse, frontal cortex, ip, read-out: Brain structure-to-plasma concentration ratio, frontal cortex (FC/P)) was 10.5, the AUC(0-t) (Swiss albino, mouse, frontal cortex, ip, read-out: AUC0→t, frontal cortex (converted)) was 363 ng·h/mL and the MRT (Swiss albino, mouse, frontal cortex, ip, read-out: MRT, frontal cortex (converted)) was 1.54 h. For the same molecule, the concentration at 5 min (Swiss albino, mouse, frontal cortex, ip, 1.25 mg/kg, 5 min, read-out: Concentration, frontal cortex (Mean)) was 355 ng/mL, the concentration at 5 min (Swiss albino, mouse, frontal cortex, ip, 1.25 mg/kg, 5 min, read-out: Concentration, frontal cortex (individual animals)) was 408 ng/mL and the concentration at 15 min (Swiss albino, mouse, frontal cortex, ip, 1.25 mg/kg, 15 min, read-out: Concentration, frontal cortex (Mean)) was 251 ng/mL. The concentration at 15 min (Swiss albino, mouse, frontal cortex, ip, 1.25 mg/kg, 15 min, read-out: Concentration, frontal cortex (individual animals)) was 233 ng/mL, the concentration at 30 min (Swiss albino, mouse, frontal cortex, ip, 1.25 mg/kg, 30 min, read-out: Concentration, frontal cortex (Mean)) was 201 ng/mL and the concentration at 30 min (Swiss albino, mouse, frontal cortex, ip, 1.25 mg/kg, 30 min, read-out: Concentration, frontal cortex (individual animals)) was 209 ng/mL. It also gave a concentration at 60 min (Swiss albino, mouse, frontal cortex, ip, 1.25 mg/kg, 60 min, read-out: Concentration, frontal cortex (Mean)) of 95.8 ng/mL, a concentration at 60 min (Swiss albino, mouse, frontal cortex, ip, 1.25 mg/kg, 60 min, read-out: Concentration, frontal cortex (individual animals)) of 104 ng/mL and a concentration at 120 min (Swiss albino, mouse, frontal cortex, ip, 1.25 mg/kg, 120 min, read-out: Concentration, frontal cortex (Mean)) of 41 ng/mL. For the same molecule, the concentration at 120 min (Swiss albino, mouse, frontal cortex, ip, 1.25 mg/kg, 120 min, read-out: Concentration, frontal cortex (individual animals)) was 40.3 ng/mL, the concentration at 240 min (Swiss albino, mouse, frontal cortex, ip, 1.25 mg/kg, 240 min, read-out: Concentration, frontal cortex (Mean)) was 12.8 ng/mL and the concentration at 240 min (Swiss albino, mouse, frontal cortex, ip, 1.25 mg/kg, 240 min, read-out: Concentration, frontal cortex (individual animals)) was 9.95 ng/mL. For the same molecule, the concentration at 480 min (Swiss albino, mouse, frontal cortex, ip, 1.25 mg/kg, read-out: Concentration, frontal cortex (Mean)) was 2.98 ng/mL, the concentration at 480 min (Swiss albino, mouse, frontal cortex, ip, 1.25 mg/kg, read-out: Concentration, frontal cortex (individual animals)) was 1.96 ng/mL and the Cmax (Swiss albino, mouse, frontal cortex, ip, 1.25 mg/kg, read-out: Cmax, frontal cortex) was 355 ng/g. The Tmax (Swiss albino, mouse, frontal cortex, ip, 1.25 mg/kg, read-out: tmax, frontal cortex (converted)) was 5 min, the Kp (Swiss albino, mouse, hippocampus, ip, read-out: Brain structure-to-plasma concentration ratio, hippocampus (H/P)) was 12.6 and the AUC(0-t) (Swiss albino, mouse, hippocampus, ip, read-out: AUC0→t, hippocampus (converted)) was 436 ng·h/mL. The MRT (Swiss albino, mouse, hippocampus, ip, read-out: MRT, hippocampus (converted)) was 1.78 h and the concentration at 5 min (Swiss albino, mouse, hippocampus, ip, 1.25 mg/kg, 5 min, read-out: Concentration, hippocampus (Mean)) was 274 ng/mL.
